Experimental data: PubChem BioAssay AID504882 (Broad Institute, 2011)
Inconclusive results are not listed. Activity calls are given as the source filed them. No rule for the calls is given here.

system: EBV lymphoblastoid cells (LCL) viability, plate reader; experiment: LCL viability reduction – cell-based, plate reader, cherry-picks, set 2, cytotoxicity control, dose response (AID 504882)

| SMILES | AC50 |
| --- | --- |
| Oc1cccc2ccc(Nc3ccccn3)nc12 | 6.35 µM |
| Cc1c(C(=O)Nc2nc(-c3ccccn3)cs2)oc2ccccc12 | 11 µM |
| O=C(Oc1c(Cl)cc(Cl)c2cccnc12)c1cccc([N+](=O)[O-])c1 | 18.8 µM |
| O=C(Nc1nnc(SCc2ccc(F)cc2)s1)c1ccccn1 | 14.1 µM |
| COc1nc(Nc2nc3ccccc3c(=O)[nH]2)nc2ccc(C)cc12 | 2.23 µM |
| O=S(=O)(c1ccccc1)N1CCN(c2cc(-c3ccccc3)nc3ncnn23)CC1 | > 19.5 µM (inactive) |
| COc1ccc(CNC(=O)N2[C@H]3CC[C@@H]2C=C(c2ccc(F)cc2OCc2ccccc2)C3)cc1OC | 2.3 µM |
| C#CCN(C[C@@H]1[C@@H](OC(=O)NCC2CCCCC2)[C@@H](OC(=O)NCC2CCCCC2)Cn2c(=O)ccc(=O)n21)S(=O)(=O)c1ccc(C)cc1 | 3.84 µM |
| O=c1cc(-c2ccccc2)oc2ccc3ccccc3c12 | 8.53 µM |
| CC1(C)N=C(N)N=C(N)N1c1ccc(CCCCc2ccccc2)cc1 | 0.991 µM |
| S=C1SCN(Cc2ccco2)CN1Cc1ccco1 | 15.8 µM |
| CC(=NNC(=S)N1CC2CCC(CC2)C1)c1nccs1 | 0.362 µM |
| CCn1c2ccccc2c2cc(/C=N/NC(=O)c3ccncc3)ccc21 | 3.31 µM |
| COc1ccc(C(NC(C)=O)c2cc(Cl)c3cccnc3c2O)cc1 (centres undefined) | 6.92 µM |
| O=C(/C=C/c1ccco1)Oc1cc(Br)cc(/C=N/NC(=O)c2ccccc2O)c1 | 6.29 µM |
| C=CCn1c(O)c(N=NC(=S)Nc2cccc(C)c2)c2ccccc21 | 2.48 µM |
| O=c1c2c(nc3c(-c4ccc(Cl)cc4)c[nH]n13)CCCC2 | 2.44 µM |
| CCOC(=O)CC(NC(=O)C(Cc1ccc(N(CCCl)CCCl)cc1)NC(C)=O)C(=O)OCC (centres undefined) | 5.68 µM |
| O=C(NC(Nc1nc2ccc([N+](=O)[O-])cc2s1)(C(F)(F)F)C(F)(F)F)c1ccccc1 | 0.298 µM |
| CC(=O)c1ccc(-c2nc3c4ccccc4ccn3c2C(C)=O)o1 | 0.371 µM |
| O=C(NC(c1ccc(Cl)cc1)c1cc(Cl)c2cccnc2c1O)c1cccnc1 (centres undefined) | 4.72 µM |
| CCNc1ccc(Br)cc(C(=O)/C=C/c2ccccc2Cl)c1=O | 15.3 µM |
| CC(=O)NC(c1ccc2ccccc2c1)c1ccc2cccnc2c1O (centres undefined) | 1.93 µM |

| SMILES | AC50 |
| --- | --- |
| CCn1c2ccccc2c2cc(/C=N/n3c(-c4cc(C)[nH]n4)n[nH]c3=S)ccc21 | 6.59 µM |
| Cc1ccc(CSc2nc3ccncc3[nH]2)cc1 | 19.5 µM |
| Cc1ccc2nc(-c3ccccn3)[nH]c2c1 | 19.5 µM |
| C=CCn1c(C)c(C(C)=O)c(N2CCN(C(c3ccccc3)c3ccccc3)CC2)nc1=S | > 19.5 µM (inactive) |
| COc1ccc(-c2[nH]ncc2-c2ccc3c(c2)OCCO3)c(O)c1 | > 19.5 µM (inactive) |
| CCCCC(=O)NC(c1ccc(OC)cc1)c1ccc2cccnc2c1O (centres undefined) | 17.7 µM |
| Cn1nnnc1N=N/C(=N/Nc1ccccc1)c1ccccc1 | 1.71 µM |
| CCOc1ccc(/C=C/[N+](=O)[O-])c2ccccc12 | 1.92 µM |
| O=C(N/N=C/c1sc2ccccc2c1O)c1cccc2ccccc12 | 1.71 µM |
| CC(C)CC(=NNC(=O)c1ccncc1)c1cc(Cl)ccc1O | 3.19 µM |
| COc1ccc(O)c(/C=N/NC(=O)c2ccc(OCc3cccc(Br)c3)cc2)c1 | 4.03 µM |
| CC(=NNC(=S)N1CCN(c2ccccn2)CC1)c1nccs1 | 0.429 µM |
| COc1ccc(O)c(/C=N/Nc2nc(Nc3ccccc3)nc(-n3nc(C)cc3C)n2)c1 | 10.7 µM |
| CCN(CC)S(=O)(=O)c1cccc(NC(=O)Nc2cccc(C(F)(F)F)c2)c1 | 9.7 µM |
| c1ccc(-c2nc(-c3ccccn3)no2)cc1 | 9.22 µM |
| CCNc1ccc(Br)cc(C(=O)/C=C/c2c(Cl)cccc2Cl)c1=O | 13.8 µM |
| c1ccc(C2=NNC(=NC3CC3)SC2)cc1 | 11.9 µM |
| COc1ccc(-c2nnc(NC(=O)c3ccc(S(=O)(=O)N4CCCc5ccccc54)cc3)o2)cc1 | 15 µM |
| N#Cc1c(Oc2ccc3ccccc3c2)sc(C(=O)c2ccccc2)c1N | 20 µM |
| CS(=O)(=O)c1ncc(Cl)c(C(=O)Nc2ccc(OC(F)F)cc2)n1 | 4.53 µM |
| C(=Cc1cnc2ccccc2n1)c1ccc2c(c1)OCO2 | 6.12 µM |
| Oc1c(C(Nc2nc3ccccc3s2)c2ccco2)ccc2cccnc12 (centres undefined) | 2 µM |
| CC(=NNC(=S)N1CCCCC1)c1cccc(C)n1 | 2.37 µM |

| SMILES | AC50 |
| --- | --- |
| C#CCN(C[C@@H]1[C@@H](OC(=O)NCc2ccccc2F)[C@@H](OC(=O)NCc2ccccc2F)Cn2c(=O)ccc(=O)n21)S(=O)(=O)c1ccc(C)cc1 | 3.8 µM |
| CCn1c2ccccc2c2cc(/C=N/n3cn[nH]c3=S)ccc21 | 3.79 µM |
| CC(=NNC(=S)N1CCCC1)c1ccccn1 | 0.037 µM |
| C=CCn1c(O)c(N=NC(=S)Nc2ccccc2F)c2ccccc21 | 10.2 µM |
| COc1ccccc1-c1nnc(Sc2nc([N+](=O)[O-])nn2C)o1 | 8.25 µM |
| CCOC(=O)c1c2c(n(C)c1C)C(=O)C(=O)c1ccc(Br)cc1-2 | 1.95 µM |
| CC(=NNC(=S)Nc1ccc(C)cc1)c1ccccn1 | 0.269 µM |
| CCc1cc(C(=O)Nc2ncccc2O)sc1C | > 19.5 µM (inactive) |
| C/C(=N\NC(=O)c1cccc(Br)c1)c1ccccn1 | 0.803 µM |
| CCCc1cc(=O)n2[nH]cc(-c3ccc(Cl)cc3)c2n1 | 8.45 µM |
| Cn1c(/C=C/c2ccccc2)nc2ccccc21 | 13.9 µM |
| C#Cc1cc(N2CCN(C(=O)c3ccoc3)CC2)n2nc(-c3cccc(Cl)c3)cc2n1 | 10.4 µM |
| S=C(NN=Cc1ccccn1)Nc1ccccn1 | 9.02 µM |
| O=C(Nc1nc(-c2ccccn2)cs1)c1ccc(Cl)s1 | 1.34 µM |
| CCCCC(=O)NC(c1cccc([N+](=O)[O-])c1)c1ccc2cccnc2c1O (centres undefined) | 5.14 µM |
| CCNC(=S)NNC(=O)c1cc(-c2ccc(OCC)cc2)nc2ccccc12 | 7.85 µM |
| CCN(CC)c1ccc(/C=N/NC(=O)c2c(Cl)cnn2C)c(O)c1 | 3.19 µM |
| CC(C)C(=O)NC(c1ccc(Cl)cc1Cl)c1ccc2cccnc2c1O (centres undefined) | 2.28 µM |
| COc1ccccc1-c1nc(-c2ccccn2)no1 | 10.8 µM |
| CN(C)c1ccc(C=Cc2ccnc3c(O)cccc23)cc1 | 10.5 µM |
| O=[N+]([O-])c1ccc(O)c(/C=N/Nc2ncnc3c2cnn3-c2ccccc2)c1 | 4.55 µM |
| Oc1ccc2ccccc2c1N=Nc1ccccn1 | 4.54 µM |
| Cc1cc(=O)[nH]c(NN=Cc2cc(Br)ccc2O)n1 | 3.92 µM |

| SMILES | AC50 |
| --- | --- |
| Nc1ccn([C@@H]2O[C@H](CO)[C@@H](O)[C@@H]2O)c(=O)n1 | 0.748 µM |
| Fc1ccc2[nH]c3c(N4CCSCC4)ncnc3c2c1 | 17.5 µM |
| Nc1ccc(C(=O)N/N=C\c2cc(N=Nc3cccc4ccccc34)ccc2O)cc1 | 10.7 µM |
| O=[N+]([O-])c1c(Nc2cccc(O)c2)cc(Cl)c2nonc12 | 2.73 µM |
| COc1cccc(/C=N/Nc2nccnc2Cl)c1O | 3.86 µM |
| CCC(=O)NC(c1cc(Cl)c2cccnc2c1O)C(C)C (centres undefined) | 6.78 µM |
| CC(=O)NC(c1ccc(Cl)cc1)c1ccc2cccnc2c1O (centres undefined) | 1.21 µM |
| N#CC(C#N)=NNc1ccc(-n2ccc(C(F)(F)F)n2)cc1 | 2.53 µM |
| CCOc1cccc(/C=N/Nc2ccc(S(=O)(=O)N(CC)CC)cn2)c1O | 1.79 µM |
| Clc1ccc(-n2nnnc2Sc2ncnc3sccc23)cc1 | 8.53 µM |
| CCOc1ccc(C(C)=O)cc1COc1cccnc1[N+](=O)[O-] | > 19.5 µM (inactive) |
| O=c1c2c(nc3c(-c4cccc(Br)c4)c[nH]n13)CCCC2 | 11 µM |
| Cc1[nH]n(-c2ccccc2)c(=O)c1/C=N/Nc1nncc(-c2ccccc2)n1 | 0.83 µM |
| COc1ccccc1[C@]1(C)ON(c2ccccc2C(F)(F)F)C1=O | 16.7 µM |
| CCc1ccc(Nc2n[n+](-c3ccccc3)c(-c3c(Cl)cccc3Cl)s2)cc1 | 15 µM |
| CCN1CCN(Cc2ccc(NC(=O)c3ccc(C)c(NC(=O)c4c[nH]c5cc(C(F)(F)F)ccc5c4=O)c3)cc2C(F)(F)F)CC1 | 3.95 µM |
| C=C(C(=O)c1ccccc1)C(CC(=O)c1ccccc1)c1ccccc1 (centres undefined) | 3.79 µM |
| c1ccc(-c2cccc(-c3ccccn3)n2)nc1 | 1.69 µM |
| O=C(N/N=C/c1c(O)ccc2ccccc12)c1cccnc1 | 10.5 µM |
| O=c1[nH]c(=O)n([C@H]2C[C@H](O)[C@@H](CO)O2)cc1C(F)(F)F | 1.51 µM |
| N#Cc1ccc(-c2csc(NNC(=O)c3ccc(Br)cc3)n2)cc1 | 5.38 µM |
| CC(=O)Nc1nc(C)c(-c2csc(Nc3ccc(O)cc3)n2)s1 | 19.4 µM |
| Cc1cc(=O)[nH]c(N=N/C(=N/Nc2ccccc2C)c2ccccc2)n1 | 8.28 µM |

| SMILES | AC50 |
| --- | --- |
| NC(Cc1ccc(O)cc1)C(=O)NN=Cc1ccc(N(CCCl)CCCl)cc1 (centres undefined) | 0.983 µM |
| C(=N\Nc1nc2ccccc2[nH]1)/c1cccc2cccnc12 | 1.06 µM |
| Cc1cc(N/N=C\c2ccc(Br)cc2)nc(-n2nc(C)cc2C)n1 | 4.81 µM |
| CCOC(=O)c1cnc(-n2nc(C)cc2C)nc1NNc1cc(C)nc(-c2ccccc2)n1 | 3.73 µM |
| Cc1cc(S(=O)(=O)c2ccc(Cl)cc2)nc(S(=O)(=O)c2ccc(Cl)cc2)c1C#N | 0.855 µM |
| CCCCCCc1cc2cc(-c3nnc(-c4ccccc4)o3)c(=O)oc2cc1O | 9.34 µM |
| NC(=S)NN=Cc1nccc2c(C(F)(F)C(F)(F)C(F)(F)F)cccc12 | 0.452 µM |
| COc1ccc(-n2nc(C(=O)c3cccs3)cc(-c3nc4ccccc4[nH]3)c2=N)cc1 | 8.9 µM |
| COc1cccc(/C=N/Nc2ncnc3c2ncn3Cc2ccccc2)c1O | 2.21 µM |
| CCN1CCN(Cc2ccc(NC(=O)c3ccc(C)c(/C=C/c4cnc(Nc5cc(N6CCNCC6)nc(C)n5)cn4)c3)cc2C(F)(F)F)CC1 | 9.23 µM |
| COc1ccc(Cc2nnc(N/N=C/c3ccc(O)cc3)[nH]c2=O)cc1OC | 4.05 µM |
| NC(=S)NN=Cc1nccc2c(C(F)(F)F)cccc12 | 1.15 µM |
| CC(=NNc1nc2ccccc2o1)c1ncccn1 | 0.384 µM |
| CC(=O)NC(c1ccc(Cl)cc1Cl)c1ccc2cccnc2c1O (centres undefined) | 1.56 µM |
| O=C(Nc1ccc(N2CCOCC2)cc1)c1cn2ccccc2n1 | 10.9 µM |
| CCc1sc(C(=O)Nc2nc(-c3ccccn3)cs2)cc1C | 7.43 µM |
| Oc1cccc(C(Nc2nccs2)c2ccc3cccnc3c2O)c1 (centres undefined) | 11.4 µM |
| CN=C1S/C(=C\c2ccc(O)c(Br)c2)C(=O)N1C | > 19.5 µM (inactive) |
| COc1cccc(/C=N/NC(=O)c2[nH]nc3c2CCc2ccccc2-3)c1O | 4.51 µM |
| Cc1csc(N=Nc2ccc(N(C)C)cc2)[n+]1[O-] | 7.33 µM |
| CC(=O)OC1CCC2(C)C(CCC3C4CC=C(C(C)=O)C4(C)OC(=O)CC32)C1 (centres undefined) | 3.85 µM |
| Cc1ccc(C(=O)N/N=C/c2c(O)ccc3ccccc23)cn1 | 17 µM |
